Results reported in ChEMBL document CHEMBL4622845, “p62/SQSTM1, a Central but Unexploited Target: Advances in Its Physiological/Pathogenic Functions and Small Molecular Modulators” (J Med Chem, 2020).
Where a name gives a salt, the structure may show the parent alone. Blank lines part the entries; values can stand above or below the compound they belong to.

How the values were obtained:
[1] = Cytotoxicity against RSL3 resistance human HN3 cells assessed as reduction in cell viability; format: functional, cell-based
[2] = biological target: T1, Phosphatidylinositol 3-kinase catalytic subunit type 3 (Homo sapiens, UniProt Q8NEB9); assay: Inhibition of Vps34 (unknown origin)
[3] = biological target: T1, Phosphatidylinositol 3-kinase catalytic subunit type 3; assay: Inhibition of Vps34 (unknown origin) interaction with PIK3 assessed as reduction in autophagy by increasing LC3 level
[4] = biological target: T1, Phosphatidylinositol 3-kinase catalytic subunit type 3; assay: Inhibition of Vps34 in human MCF7-LC3 cells; format: cell-based
[5] = Antitumor activity against human multiple myeloma cells; format: functional
NSCLC = assay: Anticancer activity against human NSCLC cells; format: functional, cell-based
[6] = biological target: Serine/threonine-protein kinase mTOR (Homo sapiens, UniProt P42345); assay: Inhibition of mTOR in HEK293 cells; format: cell-based
[7] = biological target: T2, UDP-glucuronosyltransferase 1A1 (Homo sapiens, UniProt P22309); assay: Induction of UGT1A1 (unknown origin) assessed as increase in intracellular acidic autophagy vesicles formation; format: ADME, cell-based
T2 sequence (P22309 whole entry): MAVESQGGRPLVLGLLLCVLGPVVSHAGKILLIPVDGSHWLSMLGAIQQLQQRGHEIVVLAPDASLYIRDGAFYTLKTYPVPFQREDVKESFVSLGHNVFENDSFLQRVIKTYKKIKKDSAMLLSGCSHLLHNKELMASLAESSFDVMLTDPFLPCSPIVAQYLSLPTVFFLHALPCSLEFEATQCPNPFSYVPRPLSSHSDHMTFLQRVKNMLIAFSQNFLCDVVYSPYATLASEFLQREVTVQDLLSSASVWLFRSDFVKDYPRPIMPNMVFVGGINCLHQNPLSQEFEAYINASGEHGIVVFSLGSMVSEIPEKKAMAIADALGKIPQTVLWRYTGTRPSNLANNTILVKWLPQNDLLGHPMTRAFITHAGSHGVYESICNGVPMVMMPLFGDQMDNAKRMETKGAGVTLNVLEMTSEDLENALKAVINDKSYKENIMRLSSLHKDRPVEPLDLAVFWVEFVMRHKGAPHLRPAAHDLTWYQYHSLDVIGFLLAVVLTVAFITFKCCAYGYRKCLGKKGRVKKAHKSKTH

CYP450 = CYP450 (Homo sapiens, UniProt P04798+P05177+P05181+P08684+P10632+P10635+P11509+P11712+P13584+P20813+P20815+P20853+P24462+P24903+P33260+P33261+P51589+P78329+P98187+Q02928+Q08477+Q16678+Q16696+Q5TCH4+Q6VVX0+Q7Z449+Q8TAV3+Q96SQ9+Q9HB55); assay: Inhibition of CYP450 (unknown origin); format: ADME, protein assay
[8] = biological target: T3, DNA polymerase alpha catalytic subunit (Homo sapiens, UniProt P09884); assay: Inhibition of human DNA polymerase-alpha (unknown origin)
T3 sequence (P09884 whole entry): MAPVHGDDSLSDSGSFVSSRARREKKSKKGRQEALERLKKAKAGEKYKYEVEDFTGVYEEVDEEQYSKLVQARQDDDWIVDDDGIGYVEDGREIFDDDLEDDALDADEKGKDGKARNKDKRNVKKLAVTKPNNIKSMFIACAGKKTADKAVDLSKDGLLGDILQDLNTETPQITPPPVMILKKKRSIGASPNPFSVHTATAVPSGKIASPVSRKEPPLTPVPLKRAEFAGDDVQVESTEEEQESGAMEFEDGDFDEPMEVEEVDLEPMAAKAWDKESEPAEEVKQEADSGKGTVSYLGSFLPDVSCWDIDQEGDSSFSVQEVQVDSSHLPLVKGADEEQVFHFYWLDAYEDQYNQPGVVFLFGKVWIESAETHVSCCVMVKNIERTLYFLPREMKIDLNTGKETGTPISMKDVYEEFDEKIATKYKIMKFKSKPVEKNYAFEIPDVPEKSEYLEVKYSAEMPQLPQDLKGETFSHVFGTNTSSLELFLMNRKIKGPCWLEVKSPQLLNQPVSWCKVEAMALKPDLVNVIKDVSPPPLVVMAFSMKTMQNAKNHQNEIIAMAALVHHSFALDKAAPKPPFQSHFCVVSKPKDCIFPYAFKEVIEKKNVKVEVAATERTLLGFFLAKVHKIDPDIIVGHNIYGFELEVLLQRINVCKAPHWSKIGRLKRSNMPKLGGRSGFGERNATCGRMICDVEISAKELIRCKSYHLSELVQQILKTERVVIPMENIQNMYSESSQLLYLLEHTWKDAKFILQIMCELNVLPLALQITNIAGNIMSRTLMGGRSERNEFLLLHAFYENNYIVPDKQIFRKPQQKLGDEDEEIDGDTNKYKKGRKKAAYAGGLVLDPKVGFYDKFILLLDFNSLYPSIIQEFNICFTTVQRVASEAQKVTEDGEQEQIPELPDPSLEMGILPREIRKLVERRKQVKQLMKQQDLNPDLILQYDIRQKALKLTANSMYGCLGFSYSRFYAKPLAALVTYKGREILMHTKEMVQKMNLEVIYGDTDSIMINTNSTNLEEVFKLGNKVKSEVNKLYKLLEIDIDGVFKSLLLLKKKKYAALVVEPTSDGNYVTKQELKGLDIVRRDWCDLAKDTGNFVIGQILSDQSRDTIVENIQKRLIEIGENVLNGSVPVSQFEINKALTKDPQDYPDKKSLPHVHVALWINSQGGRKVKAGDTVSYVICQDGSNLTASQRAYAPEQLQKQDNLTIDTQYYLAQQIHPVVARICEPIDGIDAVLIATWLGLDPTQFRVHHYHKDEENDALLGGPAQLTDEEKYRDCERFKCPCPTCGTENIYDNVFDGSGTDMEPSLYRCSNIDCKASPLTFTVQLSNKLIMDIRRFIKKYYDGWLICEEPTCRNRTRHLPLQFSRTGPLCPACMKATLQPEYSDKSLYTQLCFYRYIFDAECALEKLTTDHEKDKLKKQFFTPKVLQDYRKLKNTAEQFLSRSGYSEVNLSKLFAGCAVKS

T1 sequence (Q8NEB9 whole entry): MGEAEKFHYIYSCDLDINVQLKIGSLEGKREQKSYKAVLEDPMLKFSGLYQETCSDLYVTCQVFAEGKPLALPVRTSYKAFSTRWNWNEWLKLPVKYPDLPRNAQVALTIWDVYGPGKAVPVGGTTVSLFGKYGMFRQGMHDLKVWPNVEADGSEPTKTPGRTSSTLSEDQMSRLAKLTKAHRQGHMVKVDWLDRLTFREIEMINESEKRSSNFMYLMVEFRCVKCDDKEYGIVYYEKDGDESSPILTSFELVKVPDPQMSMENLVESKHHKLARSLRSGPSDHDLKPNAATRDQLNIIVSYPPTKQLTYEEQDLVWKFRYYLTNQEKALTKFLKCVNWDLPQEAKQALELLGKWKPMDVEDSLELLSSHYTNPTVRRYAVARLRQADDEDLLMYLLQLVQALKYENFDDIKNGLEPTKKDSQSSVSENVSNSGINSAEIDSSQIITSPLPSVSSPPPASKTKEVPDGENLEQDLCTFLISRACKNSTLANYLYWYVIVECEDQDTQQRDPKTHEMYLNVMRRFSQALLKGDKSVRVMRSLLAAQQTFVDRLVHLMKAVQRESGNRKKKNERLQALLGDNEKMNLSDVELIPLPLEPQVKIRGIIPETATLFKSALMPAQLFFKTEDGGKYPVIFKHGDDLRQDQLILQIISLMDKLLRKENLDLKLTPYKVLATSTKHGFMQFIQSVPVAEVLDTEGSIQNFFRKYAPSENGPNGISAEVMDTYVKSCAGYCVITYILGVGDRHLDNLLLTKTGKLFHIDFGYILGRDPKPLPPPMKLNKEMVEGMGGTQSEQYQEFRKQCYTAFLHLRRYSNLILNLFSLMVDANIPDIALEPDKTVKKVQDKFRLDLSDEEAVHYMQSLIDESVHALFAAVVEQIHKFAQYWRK

Structure (SMILES): COc1ccc(N(C(=O)CCl)C(C(=O)NCCc2ccccc2)c2cccs2)cc1Cl (stereo not given)
IC50 [1]: 5800 nM
IC50 [2]: 25 nM
IC50 [3]: 18 nM

Structure (SMILES): Cc1cc(Nc2cc(Cl)nc(Oc3ccc([N+](=O)[O-])cc3)n2)n[nH]1
IC50 [4]: 19 nM

Structure (SMILES): OCCNCc1ccc(OCc2ccc(F)cc2)c(OCc2ccc(F)cc2)c1
IC50 [5]: 4600 nM

Structure (SMILES): COc1ccc(S(=O)(=O)Nc2cccnc2Nc2ccc(O)cc2)cc1 [ABT-751]
IC50 (NSCLC): 1500 nM

Second part, the compound after the results:

IC50 [6]: 5 to 6 nM
Structure (SMILES): CO[C@H]1C[C@@H]2CC[C@@H](C)[C@@](O)(O2)C(=O)C(=O)N2CCCC[C@H]2C(=O)O[C@H]([C@H](C)C[C@@H]2CC[C@@H](OCCO)[C@H](OC)C2)CC(=O)[C@H](C)/C=C(\C)[C@@H](O)[C@@H](OC)C(=O)[C@H](C)C[C@H](C)/C=C/C=C/C=C/1C [EVEROLIMUS]

IC50 [7]: 970 nM
Structure (SMILES): C=CC(C)(C)c1cc(/C=C/C(=O)c2ccc(O)cc2)c(OC)cc1O [LICOAGROCHACONE A]

IC50 (CYP450): 19000 nM
Structure (SMILES): CCCC(C(=O)OCCN(CC)CC)(c1ccccc1)c1ccccc1 [PROADIFEN HYDROCHLORIDE]

IC50 [8]: 3300 nM
Structure (SMILES): Oc1ccc(/C=C/c2cc(O)cc(O)c2)cc1 [RESVERATROL]
